Patent US12077503B2, “Substituted cyclic amides and their use as herbicides” (FMC CORPORATION, priority 2015, dated 2024)

Key:
Assay type in all cases: in vivo
Kochia (Kochia scoparia) [1] = experiment: Test A preemergence; conditions: Bassia scoparia, pre-emergence, 240 h, 500 g ai/ha, preemergence; visual injury rating about 10 d after treatment, 0 to 100 scale (0 no effect, 100 complete control); read-out: Kochia plant response rating
Method in brief: (§1)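 Preemergence directed soil spray on seeded pots, or postemergence application to plants 2–10 cm, one- to two-leaf. Solvent mixture non-phytotoxic, with surfactant. Scored ~10 d later, visually, 0–100 vs untreated.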

[2] = tested on: barnyardgrass (Echinochloa crus-galli); experiment: Test A preemergence; conditions: Echinochloa crus-galli, pre-emergence, 240 h
Method in brief: as §1

[3] = tested on: giant foxtail (Setaria faberii); experiment: Test A preemergence; conditions: Setaria faberi, pre-emergence, 240 h
Method in brief: as §1

[4] = tested on: pigweed (Amaranthus retroflexus); experiment: Test A preemergence; conditions: Amaranthus retroflexus, pre-emergence, 240 h
[5] = tested on: ragweed (common ragweed, Ambrosia elatior); experiment: Test A preemergence; conditions: Ambrosia artemisiifolia, pre-emergence, 240 h
Method in brief: as §1

[6] = tested on: ryegrass, Italian (Italian ryegrass, Lolium multiflorum); experiment: Test A preemergence; conditions: Lolium multiflorum, pre-emergence, 240 h
Method in brief: as §1

[7] = tested on: Galium (catchweed bedstraw, Galium aparine); experiment: Test A postemergence; conditions: Galium, post-emergence, 240 h, 125 g ai/ha, Postemergence; visual injury after approximately 10 d; 0 to 100 scale where 0 is no effect and 100 is complete control; read-out: Plant response rating, Galium
Method in brief: as §1

Kochia (Kochia scoparia) [8] = experiment: Test A postemergence; conditions: Bassia scoparia, post-emergence, 240 h, 125 g ai/ha, Postemergence; visual injury after approximately 10 d; 0 to 100 scale where 0 is no effect and 100 is complete control; read-out: Plant response rating, Kochia
Method in brief: as §1

[9] = tested on: barnyardgrass (Echinochloa crus-galli); experiment: Test A postemergence; conditions: Echinochloa crus-galli, post-emergence, 240 h, 125 g ai/ha, Postemergence; visual injury after approximately 10 d; 0 to 100 scale where 0 is no effect and 100 is complete control; read-out: Plant response rating, Barnyardgrass
Method in brief: as §1

[10] = tested on: blackgrass (Alopecurus myosuroides); experiment: Test A postemergence; conditions: Alopecurus myosuroides, post-emergence, 240 h, 125 g ai/ha, Postemergence; visual injury after approximately 10 d; 0 to 100 scale where 0 is no effect and 100 is complete control; read-out: Plant response rating, Blackgrass
Method in brief: as §1

corn (Zea mays) = experiment: Test A postemergence; conditions: Zea mays, post-emergence, 240 h, 125 g ai/ha, Postemergence; visual injury after approximately 10 d; 0 to 100 scale where 0 is no effect and 100 is complete control
Method in brief: as §1

[11] = tested on: giant foxtail (Setaria faberii); experiment: Test A postemergence; conditions: Setaria faberi, post-emergence, 240 h, 125 g ai/ha, Postemergence; visual injury after approximately 10 d; 0 to 100 scale where 0 is no effect and 100 is complete control; read-out: Plant response rating, Foxtail, Giant
Method in brief: as §1

[12] = tested on: pigweed (Amaranthus retroflexus); experiment: Test A postemergence; conditions: Amaranthus retroflexus, post-emergence, 240 h, 125 g ai/ha, Postemergence; visual injury after approximately 10 d; 0 to 100 scale where 0 is no effect and 100 is complete control; read-out: Plant response rating, Pigweed
Method in brief: as §1

[13] = tested on: ragweed (common ragweed, Ambrosia elatior); experiment: Test A postemergence; conditions: Ambrosia artemisiifolia, post-emergence, 240 h, 125 g ai/ha, Postemergence; visual injury after approximately 10 d; 0 to 100 scale where 0 is no effect and 100 is complete control; read-out: Plant response rating, Ragweed
Method in brief: as §1

[14] = tested on: ryegrass, Italian (Italian ryegrass, Lolium multiflorum); experiment: Test A postemergence; conditions: Lolium multiflorum, post-emergence, 240 h, 125 g ai/ha, Postemergence; visual injury after approximately 10 d; 0 to 100 scale where 0 is no effect and 100 is complete control; read-out: Plant response rating, Ryegrass, Italian
Method in brief: as §1

[15] = tested on: wheat (Triticum aestivum); experiment: Test A postemergence; conditions: Triticum aestivum, post-emergence, 240 h, 125 g ai/ha, Postemergence; visual injury after approximately 10 d; 0 to 100 scale where 0 is no effect and 100 is complete control; read-out: Plant response rating, Wheat
Method in brief: as §1

CN1C[C@H](c2cc(F)cc(C(F)(F)F)c2)[C@@H](C(=O)Nc2cccc(Cl)c2F)C1=O [Compound 995]
pest or weed control at 500 g/ha (Kochia (Kochia scoparia) [1]): 0%
pest or weed control at 125 g/ha ([2]; 125 g ai/ha, Preemergence, visual injury rating after approximately 10 d, read-out: Barnyardgrass plant response rating (0 to 100 scale, 0 is no effect, 100 is complete control)): 80%
pest or weed control at 500 g/ha ([2]; 500 g ai/ha, preemergence, visual injury rating about 10 d after treatment, 0 to 100 scale (0 no effect, 100 complete control), read-out: Barnyardgrass plant response rating): 90%
pest or weed control at 125 g/ha ([3]; 125 g ai/ha, Preemergence, visual injury rating after approximately 10 d, read-out: Foxtail, Giant plant response rating (0 to 100 scale, 0 is no effect, 100 is complete control)): 90%
pest or weed control at 500 g/ha ([3]; 500 g ai/ha, preemergence, visual injury rating about 10 d after treatment, 0 to 100 scale (0 no effect, 100 complete control), read-out: Foxtail, Giant plant response rating): 90%
pest or weed control at 125 g/ha ([4]; 125 g ai/ha, Preemergence, visual injury rating after approximately 10 d, read-out: Pigweed plant response rating (0 to 100 scale, 0 is no effect, 100 is complete control)): 20%
pest or weed control at 500 g/ha ([4]; 500 g ai/ha, preemergence, visual injury rating about 10 d after treatment, 0 to 100 scale (0 no effect, 100 complete control), read-out: Pigweed plant response rating): 30%
pest or weed control at 125 g/ha ([5]; 125 g ai/ha, Preemergence, visual injury rating after approximately 10 d, read-out: Ragweed plant response rating (0 to 100 scale, 0 is no effect, 100 is complete control)): 0%
pest or weed control at 500 g/ha ([5]; 500 g ai/ha, preemergence, visual injury rating about 10 d after treatment, 0 to 100 scale (0 no effect, 100 complete control), read-out: Ragweed plant response rating): 20%
pest or weed control at 125 g/ha ([6]; 125 g ai/ha, Preemergence, visual injury rating after approximately 10 d, read-out: Ryegrass, Italian plant response rating (0 to 100 scale, 0 is no effect, 100 is complete control)): 20%
pest or weed control at 500 g/ha ([6]; 500 g ai/ha, preemergence, visual injury rating about 10 d after treatment, 0 to 100 scale (0 no effect, 100 complete control), read-out: Ryegrass, Italian plant response rating): 50%
pest or weed control at 125 g/ha [7]: 40%
pest or weed control at 125 g/ha (Kochia (Kochia scoparia) [8]): 0%
pest or weed control at 125 g/ha [9]: 60%
pest or weed control at 125 g/ha [10]: 50%
Corn plant response rating (crop injury, 0 = no effect, 100 = complete kill) at 125 g/ha (corn (Zea mays)): 30%
pest or weed control at 125 g/ha [11]: 80%
pest or weed control at 125 g/ha [12]: 0%
pest or weed control at 125 g/ha [13]: 0%
pest or weed control at 125 g/ha [14]: 30%
plant injury at 125 g/ha [15]: 20%
